Laboratory results as given in ChEMBL document CHEMBL3885861, “Open TG-GATES”.

Organism: Rattus norvegicus
Assay: Open TG-GATES - Regimen: Single
Type: toxicity, organism-based, Sprague-Dawley
Parameters: regimen Single, gender Male, age 6 weeks
Details: in vivo, po, route gavage; for gamma-GTP / ALP / ALT / AST / BUN / CRE / Ca / Cl / DBIL / GLC / IP / K / LDH / Na / PL / RALB / TBIL / TC / TG / TP: tissue Plasma; for APTT / Bas / Eos / Hb / Ht / Lym / MCH / MCHC / MCV / Mono / Neu / PT / Plat / RBC / Ret / WBC / Fbg: tissue Blood; for KIDNEY_L / KIDNEY_R / KIDNEY_TOTAL: tissue Kidney; for LIVER: tissue Liver
[1] = 300 mg/kg, 24 h, dose level Low

Compound: CCOc1ccc(NC(C)=O)cc1 [PHENACETIN]
- gamma-GTP (0 mg/kg, 24 h, dose level Control): 1 IU/L
- TERMINAL_BW (300 mg/kg, 3 h, dose level Low): 214.8 g
- APTT (300 mg/kg, 3 h, dose level Low): 17.3 s
- Bas (300 mg/kg, 3 h, dose level Low): 0.4%
- Eos (300 mg/kg, 3 h, dose level Low): 1%
- Hb (300 mg/kg, 3 h, dose level Low): 14.3 g/dL
- Ht (300 mg/kg, 3 h, dose level Low): 42.8%
- Lym (300 mg/kg, 3 h, dose level Low): 73.2%
- MCH (300 mg/kg, 3 h, dose level Low): 20.6 pg
- MCHC (300 mg/kg, 3 h, dose level Low): 33.3%
- MCV (300 mg/kg, 3 h, dose level Low): 62.2 fL
- Mono (300 mg/kg, 3 h, dose level Low): 2.6%
- Neu (300 mg/kg, 3 h, dose level Low): 22.8%
- PT (300 mg/kg, 3 h, dose level Low): 14 s
- Plat (300 mg/kg, 3 h, dose level Low): 134.5 x10_4/uL
- RBC (300 mg/kg, 3 h, dose level Low): 689.2 x10_4/ul
- Ret (300 mg/kg, 3 h, dose level Low): 8.6%
- WBC (300 mg/kg, 3 h, dose level Low): 59.5 x10_2/uL
- KIDNEY_L (300 mg/kg, 3 h, dose level Low): 1 g
- KIDNEY_R (300 mg/kg, 3 h, dose level Low): 1 g
- KIDNEY_TOTAL (300 mg/kg, 3 h, dose level Low): 1.9 g
- LIVER (300 mg/kg, 3 h, dose level Low): 9.3 g
- ALP (300 mg/kg, 3 h, dose level Low): 1454.6 IU/L
- ALT (300 mg/kg, 3 h, dose level Low): 38.2 IU/L
- AST (300 mg/kg, 3 h, dose level Low): 72 IU/L
- BUN (300 mg/kg, 3 h, dose level Low): 8.4 mg/dL
- CRE (300 mg/kg, 3 h, dose level Low): 0.2 mg/dL
- Ca (300 mg/kg, 3 h, dose level Low): 10.9 mg/dL
- Cl (300 mg/kg, 3 h, dose level Low): 101 meq/L
- DBIL (300 mg/kg, 3 h, dose level Low): 0 mg/dL
- GLC (300 mg/kg, 3 h, dose level Low): 206.6 mg/dL
- IP (300 mg/kg, 3 h, dose level Low): 11.3 mg/dL
- K (300 mg/kg, 3 h, dose level Low): 3.7 meq/L
- LDH (300 mg/kg, 3 h, dose level Low): 77.4 IU/L
- Na (300 mg/kg, 3 h, dose level Low): 141.6 meq/L
- PL (300 mg/kg, 3 h, dose level Low): 152.4 mg/dL
- RALB (300 mg/kg, 3 h, dose level Low): 2.6 g/dL
- TBIL (300 mg/kg, 3 h, dose level Low): 0.034 mg/dL
- TC (300 mg/kg, 3 h, dose level Low): 83.2 mg/dL
- TG (300 mg/kg, 3 h, dose level Low): 78.2 mg/dL
- TP (300 mg/kg, 3 h, dose level Low): 5.7 g/dL
- gamma-GTP (300 mg/kg, 3 h, dose level Low): 1.4 IU/L
- TERMINAL_BW (300 mg/kg, 6 h, dose level Low): 205.3 g
- APTT (300 mg/kg, 6 h, dose level Low): 16.7 s
- Bas (300 mg/kg, 6 h, dose level Low): 0%
- Eos (300 mg/kg, 6 h, dose level Low): 0.2%
- Fbg (300 mg/kg, 6 h, dose level Low): 332.4 mg/dL
- Ht (300 mg/kg, 6 h, dose level Low): 43.8%
- Lym (300 mg/kg, 6 h, dose level Low): 74%
- MCH (300 mg/kg, 6 h, dose level Low): 21.2 pg
- MCHC (300 mg/kg, 6 h, dose level Low): 33.7%
- MCV (300 mg/kg, 6 h, dose level Low): 62.9 fL
- Mono (300 mg/kg, 6 h, dose level Low): 2.4%
- PT (300 mg/kg, 6 h, dose level Low): 14.2 s
- Plat (300 mg/kg, 6 h, dose level Low): 124.8 x10_4/uL
- RBC (300 mg/kg, 6 h, dose level Low): 696 x10_4/ul
- Ret (300 mg/kg, 6 h, dose level Low): 8.3%
- WBC (300 mg/kg, 6 h, dose level Low): 66.9 x10_2/uL
- KIDNEY_L (300 mg/kg, 6 h, dose level Low): 1 g
- KIDNEY_R (300 mg/kg, 6 h, dose level Low): 0.9 g
- KIDNEY_TOTAL (300 mg/kg, 6 h, dose level Low): 1.9 g
- LIVER (300 mg/kg, 6 h, dose level Low): 9.1 g
- ALP (300 mg/kg, 6 h, dose level Low): 1428.2 IU/L
- ALT (300 mg/kg, 6 h, dose level Low): 39 IU/L
- AST (300 mg/kg, 6 h, dose level Low): 71.2 IU/L
- BUN (300 mg/kg, 6 h, dose level Low): 9.6 mg/dL
- CRE (300 mg/kg, 6 h, dose level Low): 0.1 mg/dL
- Ca (300 mg/kg, 6 h, dose level Low): 11.1 mg/dL
- Cl (300 mg/kg, 6 h, dose level Low): 101.2 meq/L
- DBIL (300 mg/kg, 6 h, dose level Low): 0 mg/dL
- GLC (300 mg/kg, 6 h, dose level Low): 198.4 mg/dL
- IP (300 mg/kg, 6 h, dose level Low): 10.1 mg/dL
- K (300 mg/kg, 6 h, dose level Low): 3.7 meq/L
- LDH (300 mg/kg, 6 h, dose level Low): 80.4 IU/L
- Na (300 mg/kg, 6 h, dose level Low): 140.4 meq/L
- PL (300 mg/kg, 6 h, dose level Low): 152.6 mg/dL
- RALB (300 mg/kg, 6 h, dose level Low): 2.7 g/dL
- TBIL (300 mg/kg, 6 h, dose level Low): 0.046 mg/dL
- TC (300 mg/kg, 6 h, dose level Low): 94.2 mg/dL
- TG (300 mg/kg, 6 h, dose level Low): 35.6 mg/dL
- TP (300 mg/kg, 6 h, dose level Low): 5.8 g/dL
- gamma-GTP (300 mg/kg, 6 h, dose level Low): 1 IU/L
- TERMINAL_BW (300 mg/kg, 9 h, dose level Low): 204.1 g
- APTT (300 mg/kg, 9 h, dose level Low): 17.8 s
- Bas (300 mg/kg, 9 h, dose level Low): 0%
- Eos (300 mg/kg, 9 h, dose level Low): 0.6%
- Fbg (300 mg/kg, 9 h, dose level Low): 313.2 mg/dL
- Hb (300 mg/kg, 9 h, dose level Low): 14.4 g/dL
- Ht (300 mg/kg, 9 h, dose level Low): 42.3%
- Lym (300 mg/kg, 9 h, dose level Low): 72.2%
- MCH (300 mg/kg, 9 h, dose level Low): 21 pg
- MCV (300 mg/kg, 9 h, dose level Low): 61.6 fL
- Mono (300 mg/kg, 9 h, dose level Low): 4.2%
- Neu (300 mg/kg, 9 h, dose level Low): 22.2%
- PT (300 mg/kg, 9 h, dose level Low): 13.9 s
- Plat (300 mg/kg, 9 h, dose level Low): 119.6 x10_4/uL
- RBC (300 mg/kg, 9 h, dose level Low): 686.6 x10_4/ul
- Ret (300 mg/kg, 9 h, dose level Low): 8.4%
- WBC (300 mg/kg, 9 h, dose level Low): 60.7 x10_2/uL
- KIDNEY_L (300 mg/kg, 9 h, dose level Low): 0.9 g
- KIDNEY_R (300 mg/kg, 9 h, dose level Low): 0.9 g
- KIDNEY_TOTAL (300 mg/kg, 9 h, dose level Low): 1.8 g
- LIVER (300 mg/kg, 9 h, dose level Low): 8.5 g
- ALP (300 mg/kg, 9 h, dose level Low): 1326.6 IU/L
- ALT (300 mg/kg, 9 h, dose level Low): 33.4 IU/L
- AST (300 mg/kg, 9 h, dose level Low): 65.4 IU/L
- BUN (300 mg/kg, 9 h, dose level Low): 11.6 mg/dL
- CRE (300 mg/kg, 9 h, dose level Low): 0.2 mg/dL
- Ca (300 mg/kg, 9 h, dose level Low): 11.1 mg/dL
- Cl (300 mg/kg, 9 h, dose level Low): 99 meq/L
- DBIL (300 mg/kg, 9 h, dose level Low): 0.008 mg/dL
- GLC (300 mg/kg, 9 h, dose level Low): 210.8 mg/dL
- IP (300 mg/kg, 9 h, dose level Low): 8.8 mg/dL
- K (300 mg/kg, 9 h, dose level Low): 4 meq/L
- LDH (300 mg/kg, 9 h, dose level Low): 93 IU/L
- Na (300 mg/kg, 9 h, dose level Low): 139 meq/L
- PL (300 mg/kg, 9 h, dose level Low): 163.2 mg/dL
- RALB (300 mg/kg, 9 h, dose level Low): 2.7 g/dL
- TBIL (300 mg/kg, 9 h, dose level Low): 0.062 mg/dL
- TC (300 mg/kg, 9 h, dose level Low): 94.8 mg/dL
- TG (300 mg/kg, 9 h, dose level Low): 50.6 mg/dL
- TP (300 mg/kg, 9 h, dose level Low): 5.8 g/dL
- gamma-GTP (300 mg/kg, 9 h, dose level Low): 1.4 IU/L
- TERMINAL_BW [1]: 210.4 g
- APTT [1]: 16.7 s
- Bas [1]: 0%
- Eos [1]: 1%
- Fbg [1]: 297.4 mg/dL
- Hb [1]: 13.9 g/dL
- Ht [1]: 41.5%
- Lym [1]: 77.4%
- MCH [1]: 20.7 pg
- MCHC [1]: 33.4%
- MCV [1]: 62.2 fL
- Mono [1]: 2.6%
- Neu [1]: 18.6%
- PT [1]: 14.1 s
- Plat [1]: 126.5 x10_4/uL
- RBC [1]: 668.8 x10_4/ul
- Ret [1]: 7.5%
- WBC [1]: 86.4 x10_2/uL
- KIDNEY_L [1]: 1 g
- KIDNEY_R [1]: 1 g
- KIDNEY_TOTAL [1]: 1.9 g
- LIVER [1]: 9.2 g
- ALP [1]: 1966 IU/L
- ALT [1]: 44.4 IU/L
- AST [1]: 83 IU/L
- BUN [1]: 14.4 mg/dL
- CRE [1]: 0.2 mg/dL
- Ca [1]: 11.1 mg/dL
- Cl [1]: 105 meq/L
- DBIL [1]: 0.01 mg/dL
- GLC [1]: 168.6 mg/dL
- IP [1]: 7.7 mg/dL
- K [1]: 4.4 meq/L
- LDH [1]: 149.6 IU/L
- Na [1]: 144 meq/L
- PL [1]: 166 mg/dL
- RALB [1]: 2.6 g/dL
- TBIL [1]: 0.05 mg/dL
- TC [1]: 87.8 mg/dL
- TG [1]: 84.4 mg/dL
